Laboratory results: US20220354844A1, “METHODS OF TREATING METABOLIC DISEASES WITH FUSED BICYCLIC PYRAZOLES” (Belite Bio, Inc, priority 2017, published 2022)
Where “and” joins values, the source holds several entries; their conditions need not be identical. Equal values may be shown once.

Experiments:
[1] = Compound 1 single dose non-human primate PK study; format: in vivo, Cynomolgus Macaques; conditions: NHP; for Vd: read-out: Vss
Procedure: A pharmacokinetic study of Compound 1 following a single intravenous or oral dose administration to non-human primates (Cynomolgus Macaques) was conducted, the results of which are found in Table 2 and FIGS. 1-8.

[2] = test system: Subjects with NAFLD or NASH; test: Treatment of NAFLD and NASH in humans; format: in vivo, human; conditions: 50 or 100 mg/day for 6 months
Procedure: Subjects with NAFLD or NASH are treated with doses of either 50 or 100 mg/day of compound 1 or 2 for 6 months. Subjects are permitted their usual other medications (e.g. antidiabetic medications such as metformin or […]) but not glitazones, PPAR agonists, OCA, or similar medications. The subjects are assessed before the study, and at intervals during the study, such as every 4 weeks during the study and 4 weeks after the last dose of compound 1 or 2, for safety and pharmacodynamic evaluations.
MRIs of the subjects' livers are taken every 4 weeks during the study and 4 weeks after completion of compound 1 or 2 dosing, to determine hepatic fat; and liver biopsies are taken before the study (to establish the diagnosis) and 4 weeks after completion of compound 1 or 2 dosing. At each visit, after a 12-hour fast, blood is drawn and urine collected; and a standard metabolic panel, complete blood count, and standard urinalysis are performed. Blood is analyzed for total cholesterol, HDL-C, LDL-C, VLDL-C, TGs, apoB, and liver transaminases. The subjects also maintain health diaries, which are reviewed at each visit.

[3] = Compound 1 single dose mouse PK study; format: in vivo, male CD-1 mice
Procedure: A pharmacokinetic study of Compound 1 following a single intravenous or oral dose administration to male CD-1 mice was conducted, the results of which are found in Table 4 and FIGS. 15-20.

[4] = Compound 1 single dose rat PK study; format: in vivo, male Sprague Dawley rats; conditions: for Vd: read-out: Vss
Procedure: A pharmacokinetic study of Compound 1 following a single intravenous or oral dose administration to male Sprague Dawley rats was conducted, the results of which are found in Table 3 and FIGS. 9-14.

[5] = single iv dose 1 mg/kg, individual animals, 1 mg/kg
[6] = single po dose 5 mg/kg, individual animals, 5 mg/kg
[7] = cynomolgus monkey, plasma, iv, 1 mg/kg, single iv dose 1 mg/kg, Mean of the 3 animals
[8] = cynomolgus monkey, plasma, iv, 1 mg/kg, single iv dose 1 mg/kg, individual animals
[9] = cynomolgus monkey, plasma, po, 5 mg/kg, single po dose 5 mg/kg, Mean of the 3 animals
[10] = cynomolgus monkey, plasma, po, 5 mg/kg, single po dose 5 mg/kg, individual animals
[11] = male, CD-1, plasma, single iv dose 2 mg/kg
[12] = male, CD-1, plasma, single po dose 5 mg/kg
[13] = male, Sprague Dawley, plasma, iv, 2 mg/kg, single iv dose 2 mg/kg, Mean of the 3 rats
[14] = male, Sprague Dawley, plasma, iv, 2 mg/kg, single iv dose 2 mg/kg, individual rats
[15] = male, Sprague Dawley, plasma, po, 5 mg/kg, single po dose 5 mg/kg, Mean of the 3 rats
[16] = male, Sprague Dawley, plasma, po, 5 mg/kg, single po dose 5 mg/kg, individual rats
[17] = single iv dose 2 mg/kg, individual rats, 2 mg/kg
[18] = single po dose 5 mg/kg, individual rats, 5 mg/kg

- AUC inf [1, 5]: 5217 hr.ng/m1 and 3761 hr.ng/m1
- AUCLAST [1, 5]: 5.165 µg·h/mL and 3.731 µg·h/mL
- Cl [1, 5]: 0.192 L/h/kg and 0.266 L/h/kg
- Cmax [1, 5]: 0.968 µg/mL and 0.704 µg/mL
- MRT last [1, 5]: 6.8 h and 6.7 h
- MRTinf [1, 5]: 7.3 h and 7.1 h
- Vss [1, 5]: 1.399 L/kg and 1.886 L/kg
- t1/2 [1, 5]: 7.8 h and 7.4 h
- F ([1]; single po dose 5 mg/kg, Mean of the 3 animals): 18.7%
- AUC inf [1, 6]: 3601 hr.ng/m1 and 3918 hr.ng/m1
- AUCLAST [1, 6]: 3.525 µg·h/mL and 3.852 µg·h/mL
- Cmax [1, 6]: 0.363 µg/mL and 0.369 µg/mL
- F [1, 6]: 21.6% and 16.5%
- MRT last [1, 6]: 10.0 h and 10.3 h
- MRTinf [1, 6]: 11.1 h
- Tmax [1, 6]: 2 h
- t1/2 [1, 6]: 8.7 h and 8.1 h
- AUC(0-inf) [1, 7]: 4.37 µg·h/mL
- AUC(0-t) [1, 7]: 4.33 µg·h/mL
- MRT inf [1, 7]: 6.9 h
- clearance [1, 7]: 0.233 L/h/kg
- half-life [1, 7]: 7.7 h
- Tmax ([1]; cynomolgus monkey, plasma, iv, 1 mg/kg, single iv dose 1 mg/kg, Mean of the 3 animals, first plasma collection time listed as Tmax, read-out: Tmax): 0.27 h
- Cmax ([1]; cynomolgus monkey, plasma, iv, 1 mg/kg, single iv dose 1 mg/kg, Mean of the 3 animals, read-out: Cmax): 0.881 µg/mL
- MRT last ([1]; cynomolgus monkey, plasma, iv, 1 mg/kg, single iv dose 1 mg/kg, Mean of the 3 animals, read-out: MRT last): 6.4 h
- Vd [1, 7]: 1.6 L/kg
- AUC(0-inf) [1, 8]: 4.15 µg·h/mL
- AUC(0-t) [1, 8]: 4.11 µg·h/mL
- MRT inf [1, 8]: 6.3 h
- clearance [1, 8]: 0.241 L/h/kg
- half-life [1, 8]: 7.8 h
- Cmax ([1]; cynomolgus monkey, plasma, iv, 1 mg/kg, single iv dose 1 mg/kg, individual animals, read-out: Cmax): 0.97 µg/mL
- MRT last ([1]; cynomolgus monkey, plasma, iv, 1 mg/kg, single iv dose 1 mg/kg, individual animals, read-out: MRT last): 5.9 h
- Vd [1, 8]: 1.52 L/kg
- AUC(0-inf) [1, 9]: 4.08 µg·h/mL
- AUC(0-t) [1, 9]: 3.99 µg·h/mL
- MRT inf [1, 9]: 11.3 h
- half-life [1, 9]: 8.5 h
- Cmax ([1]; cynomolgus monkey, plasma, po, 5 mg/kg, single po dose 5 mg/kg, Mean of the 3 animals, read-out: Cmax): 0.406 µg/mL
- MRT last ([1]; cynomolgus monkey, plasma, po, 5 mg/kg, single po dose 5 mg/kg, Mean of the 3 animals, read-out: MRT last): 10.2 h
- Tmax ([1]; cynomolgus monkey, plasma, po, 5 mg/kg, single po dose 5 mg/kg, Mean of the 3 animals, read-out: Tmax): 1.67 h
- AUC(0-inf) [1, 10]: 4.72 µg·h/mL
- AUC(0-t) [1, 10]: 4.58 µg·h/mL
- MRT inf [1, 10]: 11.7 h
- half-life [1, 10]: 8.8 h
- Cmax ([1]; cynomolgus monkey, plasma, po, 5 mg/kg, single po dose 5 mg/kg, individual animals, read-out: Cmax): 0.485 µg/mL
- MRT last ([1]; cynomolgus monkey, plasma, po, 5 mg/kg, single po dose 5 mg/kg, individual animals, read-out: MRT last): 10.2 h
- Tmax ([1]; cynomolgus monkey, plasma, po, 5 mg/kg, single po dose 5 mg/kg, individual animals, read-out: Tmax): 1 h
- AUC(0-inf) [3, 11]: 2.46 µg·h/mL
- AUC(0-t) [3, 11]: 2.4 µg·h/mL
- MRT inf [3, 11]: 2.5 h
- MRT last [3, 11]: 2.2 h
- clearance [3, 11]: 0.812 L/h/kg
- half-life [3, 11]: 2.1 h
- Cmax ([3]; male, CD-1, plasma, single iv dose 2 mg/kg, maximum observed concentration at first time point): 1.46 µg/mL
- Vd ([3]; male, CD-1, plasma, single iv dose 2 mg/kg, read-out: Vss): 2.02 L/kg
- AUC(0-inf) [3, 12]: 1.81 µg·h/mL
- AUC(0-t) [3, 12]: 1.8 µg·h/mL
- Cmax [3, 12]: 0.278 µg/mL
- MRT inf [3, 12]: 5 h
- MRT last [3, 12]: 4.9 h
- Tmax [3, 12]: 0.25 h
- half-life [3, 12]: 2.9 h
- Tmax ([3]; male, CD-1, single iv dose 2 mg/kg, first plasma collection time): 0.08 h
- F ([3]; single po dose 5 mg/kg): 29.4%
- AUC(0-inf) [4, 13]: 3.97 µg·h/mL
- AUC(0-t) [4, 13]: 3.95 µg·h/mL
- MRT inf [4, 13]: 3.3 h
- MRT last [4, 13]: 3 h
- clearance [4, 13]: 0.521 L/h/kg
- Tmax ([4]; male, Sprague Dawley, plasma, iv, 2 mg/kg, single iv dose 2 mg/kg, Mean of the 3 rats, first plasma collection time listed as Tmax): 0.08 h
- Cmax ([4]; male, Sprague Dawley, plasma, iv, 2 mg/kg, single iv dose 2 mg/kg, Mean of the 3 rats, read-out: Cmax): 1.87 µg/mL
- Vd [4, 13]: 1.68 L/kg
- half-life ([4]; male, Sprague Dawley, plasma, iv, 2 mg/kg, single iv dose 2 mg/kg, Mean of the 3 rats, read-out: t1/2 (converted)): 8.5 h
- AUC(0-inf) [4, 14]: 3.61 µg·h/mL
- AUC(0-t) [4, 14]: 3.6 µg·h/mL
- MRT inf [4, 14]: 3 h
- MRT last [4, 14]: 2.8 h
- clearance [4, 14]: 0.554 L/h/kg
- Tmax ([4]; male, Sprague Dawley, plasma, iv, 2 mg/kg, single iv dose 2 mg/kg, individual rats, first plasma collection time listed as Tmax): 0.08 h
- Cmax ([4]; male, Sprague Dawley, plasma, iv, 2 mg/kg, single iv dose 2 mg/kg, individual rats, read-out: Cmax): 1.67 µg/mL
- Vd [4, 14]: 1.69 L/kg
- half-life ([4]; male, Sprague Dawley, plasma, iv, 2 mg/kg, single iv dose 2 mg/kg, individual rats, read-out: t1/2 (converted)): 8.6 h
- AUC(0-inf) [4, 15]: 2.68 µg·h/mL
- AUC(0-t) [4, 15]: 2.64 µg·h/mL
- MRT inf [4, 15]: 9.9 h
- MRT last [4, 15]: 9 h
- Tmax [4, 15]: 1.42 h
- Cmax ([4]; male, Sprague Dawley, plasma, po, 5 mg/kg, single po dose 5 mg/kg, Mean of the 3 rats, read-out: Cmax): 0.39 µg/mL
- AUC(0-inf) [4, 16]: 3.21 µg·h/mL
- AUC(0-t) [4, 16]: 3.17 µg·h/mL
- MRT inf [4, 16]: 8.7 h
- MRT last [4, 16]: 8 h
- Cmax ([4]; male, Sprague Dawley, plasma, po, 5 mg/kg, single po dose 5 mg/kg, individual rats, read-out: Cmax): 0.456 µg/mL
- half-life ([4]; male, Sprague Dawley, plasma, po, 5 mg/kg, single po dose 5 mg/kg, individual rats, read-out: t1/2 (converted)): 8.2 h
- half-life ([4]; male, Sprague Dawley, plasma, po, 5 mg/kg, t1/2, rat, single po dose 5 mg/kg, Mean of the 3 rats, heading: t1/2): 7.6 h
- AUCLAST [4, 17]: 5.02 µg·h/mL and 3.244 µg·h/mL
- AUCinf [4, 17]: 5.055 µg·h/mL and 3.256 µg·h/mL
- Cl [4, 17]: 0.396 L/h/kg and 0.614 L/h/kg
- Cmax [4, 17]: 2.4 µg/mL and 1.536 µg/mL
- MRTinf [4, 17]: 3.7 h and 3.1 h
- MRTlast [4, 17]: 3.2 h and 2.9 h
- t1/2 [4, 17]: 11.0 h and 6.0 h
- F ([4]; single po dose 5 mg/kg, Mean of the 3 rats): 27.0%
- AUCLAST [4, 18]: 2.683 µg·h/mL and 2.069 µg·h/mL
- AUCinf [4, 18]: 2.698 µg·h/mL and 2.138 µg·h/mL
- Cmax [4, 18]: 0.274 µg/mL and 0.44 µg/mL
- F [4, 18]: 32.3% and 27.2% and 21.5%
- MRTinf [4, 18]: 8.2 h and 12.8 h
- MRTlast [4, 18]: 11.2 h
- t1/2 [4, 18]: 6.2 h and 8.5 h
SMILES: CC(=O)N1CCc2c(C(=O)N3CCC(c4ccc(F)c(F)c4C(F)(F)F)CC3)n[nH]c2C1 [Compound 1, 1-(3-(4-(3,4-difluoro-2-(trifluoromethyl)phenyl)piperidine-1-carbonyl)-1,4,5,7-tetrahydro-6H-pyrazolo[3,4-c]pyridin-6-yl)ethan-1-one]
- improvement in their disease, as manifested by MRI and liver biopsy [2]: dose-related improvement
